From article PMC9096165 (Frontiers in Pharmacology, 2022)

Legend:
[1] = Tissue distribution by quantitative whole-body autoradiography; type: in vivo, female SD rats; conditions: at tmax (2 h after dosing), oral 20 mg/kg
Method: Tissue distribution was performed by quantitative whole-body autoradiography (QWBA). At the selected time points (2, 6, 12, 24, 48, 120, and 168 h post-oral administration of the compound), animals (n = 6) were killed using an overdose of carbon dioxide, followed by immediate snap freezing in a hexane/solid carbon dioxide mixture. Each carcass was subjected to WBA using procedures based on the work of [Waddell and Brinkhous (1967)]. Sections were taken at up to six different levels of the rat body to include as many tissues as possible (a minimum of 30). Distribution of radioactivity in the sections was determined and quantified by bioimage analysis.

[2] = system: CYP-induced non-ulcerative IC rat model; assay: Mechanical nociceptive abdominal and hind paw test (Von Frey) in chronic CYP-induced non-ulcerative IC/BPS; type: in vivo, female Sprague–Dawley rats
Method: CYP was administered to the animals by the intraperitoneal (i.p.) route (5 ml kg^−1) at the dosage of 75 mg kg^−1 for three times every third day to elicit chronic bladder irritation, as previously described ([Vizzard et al., 1996]).
DF2755A was administered by oral gavage (2 ml kg^−1) at different doses and times before, during, or after CYP treatment, as specified hereunder. DF2755A dosages were chosen based on previous studies that described pharmacokinetics, pharmacodynamics, and pharmacological characterization of the compound ([Lopes et al., 2016]).
Acute treatment: DF2755A was administered 24 h after the last CYP administration at 3, 7, 10, and 30 mg kg^−1.
Chronic preventive treatment: DF2755A was administered 12 h before the first CYP administration (20 mg kg^−1) and then twice daily (7 mg kg^−1) for 7 days during IC development.
Chronic therapeutic treatment: DF2755A was administered twice daily for 7 days at 7 mg kg^−1, starting from 24 h after the last CYP injection.
On the day of the test, each rat was placed individually in a clear plastic testing box with a grid floor and allowed to acclimatize for at least 10 min. Peripheral sensitivity in response to mechanical stimuli was determined using Von Frey monofilaments (1-2-4-8-15-26-60–100 g; Ugo Basile, Comerio, Varese, Italy) applied in the lower abdominal area (close to the urinary bladder) and on both hind paw plantar surfaces (to evaluate referred pain).
Each Von Frey monofilament was applied five times at the level of abdomen and three times at the level of each paw, in an ascending order of strength at interval of 5 s. A stimulus-induced response was considered positive when the paw was sharply withdrawn, paw licking occurred, or the animal flinched upon removal of the filament.
Behavioral testing was performed at different times: • 1) before CYP administration, in order to acquire basal values; • 2) after CYP administration and before DF2755A treatment, in order to verify the pathology induction and acquire pre-treatment values; • 3) at different times after DF2755A treatment, in order to acquire post-treatment values, specifically at 2 and 18 h after the last treatment.

CXCR2 = CXCR2 mRNA expression in F11 cells (RT PCR); type: cell-based; conditions: DF2755A 1 µM + CYP 100 nM
Description: (§1) For these experiments, cells at 18th passage were used.
(§2) Triplicate samples were run for each gene.

CXCL1 = CXCL1 mRNA expression in F11 cells (RT PCR); type: cell-based; conditions: DF2755A 1 µM + CYP 100 nM
Description: as §1, §2

CXCL1/KC = assay: CXCL1 ELISA in bladder tissue; type: in vivo, rat; conditions: preventive: 20 mg kg^−1 + 7 mg kg^−1 twice daily for 7 days, CYP rats
Method: Animals pre-treated with the vehicle or a single high oral dose of DF2755A (20 mg kg^−1; 12 h before the first CYP administration) followed by repeated lower doses administration (7 mg kg^−1 twice daily for 7 days) during IC development were deeply anesthetized with isoflurane (4%) and then killed.
After killing, rat abdomen was opened through a midline incision, and bladder and proximal urethra were exposed. A catheter was inserted into the bladder through the urethra and a loose ligature was placed around the neck of the urinary bladder. Bladder was inflated with saline via the catheter to slightly distend the bladder and ligature was tightened to maintain proper distension. Bladder was then excised cutting above the insertion point of ureters, and therefore the bladder neck was not included into the bladder sample. […] One piece (B1) was placed in Eppendorf, then snap-frozen in liquid nitrogen, and stored at −80°C until quantification using ELISA assay. […] For the microscopic observations of bladder inflammation, the following parameters were analyzed: bladder edema in scores (n = 10/group), bladder hemorrhage in scores (n = 10/group), urothelial loss in scores (n = 10/group), and total inflammatory score, which was calculated by adding all the individual lesion scores (n = 10/group). […]

TRPV1 [3] = assay: TRPV1 mRNA expression in F11 cells (RT PCR); type: cell-based; conditions: DF2755A 1 µM + CYP 100 nM
Description: as §1, §2

TRPV1 [4] = target: TRPV1 (Homo sapiens, UniProt Q8NER1); assay: Ion channel assay, agonist and antagonist mode; type: biochemical; conditions: up to 100 μM (maximum tested concentration)
Method: (§3) In addition, DF2755A was tested on TRPM8, TRPV1, TRPV4, TRPA1, and Nav1.7 ion channels in agonist and antagonist mode at eight concentrations in quadruplicate (100 μM was the highest tested concentration).

TRPV4 = TRPV4 (Homo sapiens, UniProt Q9HBA0); assay: Ion channel assay, agonist and antagonist mode; type: biochemical; conditions: up to 100 μM (maximum tested concentration)
Method: as §3

Nav1.7 = Nav1.7 (Homo sapiens, UniProt Q15858); assay: Ion channel assay, agonist and antagonist mode; type: biochemical; conditions: up to 100 μM (maximum tested concentration)
Method: as §3

TRPM8 = TRPM8 (Homo sapiens, UniProt Q7Z2W7); assay: Ion channel assay, agonist and antagonist mode; type: biochemical; conditions: up to 100 μM (maximum tested concentration)
Method: as §3

TRPA1 = TRPA1 (Homo sapiens, UniProt O75762); assay: Ion channel assay, agonist and antagonist mode; type: biochemical; conditions: up to 100 μM (maximum tested concentration)
Method: as §3

[5] = acute oral treatment 24 h after last CYP, abdomen and hind paw, 2 h after administration
[6] = preventive: 20 mg kg^−1 12 h before first CYP, then 7 mg kg^−1 twice daily for 7 days p.o., 24 h after last CYP
[7] = therapeutic 7 mg kg^−1 twice daily for 7 days, 3 and 7 days after treatment discontinuation
[8] = therapeutic 7 mg kg^−1 twice daily for 7 days, 18 h after the last administration

Sequence of TRPA1 (O75762 whole entry, species assumed): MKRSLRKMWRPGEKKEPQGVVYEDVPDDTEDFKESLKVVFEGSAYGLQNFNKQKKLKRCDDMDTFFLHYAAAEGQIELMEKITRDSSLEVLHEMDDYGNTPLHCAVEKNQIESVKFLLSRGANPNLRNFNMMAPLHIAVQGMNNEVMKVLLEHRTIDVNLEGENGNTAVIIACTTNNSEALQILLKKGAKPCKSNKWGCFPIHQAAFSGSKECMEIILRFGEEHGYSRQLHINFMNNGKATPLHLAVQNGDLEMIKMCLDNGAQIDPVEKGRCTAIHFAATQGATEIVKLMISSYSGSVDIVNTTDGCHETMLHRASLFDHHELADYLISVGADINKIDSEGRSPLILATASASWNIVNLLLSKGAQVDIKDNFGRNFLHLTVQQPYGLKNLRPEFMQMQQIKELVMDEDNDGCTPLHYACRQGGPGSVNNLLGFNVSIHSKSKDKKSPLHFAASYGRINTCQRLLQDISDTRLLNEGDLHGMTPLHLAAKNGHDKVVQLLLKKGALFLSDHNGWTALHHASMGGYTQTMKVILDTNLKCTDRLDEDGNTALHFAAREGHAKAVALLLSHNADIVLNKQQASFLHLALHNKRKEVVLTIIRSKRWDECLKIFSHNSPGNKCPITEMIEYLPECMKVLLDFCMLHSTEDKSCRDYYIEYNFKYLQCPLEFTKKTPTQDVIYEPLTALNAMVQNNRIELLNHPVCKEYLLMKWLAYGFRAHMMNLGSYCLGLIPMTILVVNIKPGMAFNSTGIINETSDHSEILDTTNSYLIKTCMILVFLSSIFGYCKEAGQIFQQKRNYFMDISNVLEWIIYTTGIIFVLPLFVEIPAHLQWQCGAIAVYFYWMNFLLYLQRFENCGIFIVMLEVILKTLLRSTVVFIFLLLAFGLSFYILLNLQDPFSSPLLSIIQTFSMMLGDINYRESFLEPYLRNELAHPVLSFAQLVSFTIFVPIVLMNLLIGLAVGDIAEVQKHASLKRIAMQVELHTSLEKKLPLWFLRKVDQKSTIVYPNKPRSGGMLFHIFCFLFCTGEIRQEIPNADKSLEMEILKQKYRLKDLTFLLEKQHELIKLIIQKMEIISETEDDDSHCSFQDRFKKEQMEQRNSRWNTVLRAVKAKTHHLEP
Sequence of TRPM8 (Q7Z2W7 whole entry, species assumed): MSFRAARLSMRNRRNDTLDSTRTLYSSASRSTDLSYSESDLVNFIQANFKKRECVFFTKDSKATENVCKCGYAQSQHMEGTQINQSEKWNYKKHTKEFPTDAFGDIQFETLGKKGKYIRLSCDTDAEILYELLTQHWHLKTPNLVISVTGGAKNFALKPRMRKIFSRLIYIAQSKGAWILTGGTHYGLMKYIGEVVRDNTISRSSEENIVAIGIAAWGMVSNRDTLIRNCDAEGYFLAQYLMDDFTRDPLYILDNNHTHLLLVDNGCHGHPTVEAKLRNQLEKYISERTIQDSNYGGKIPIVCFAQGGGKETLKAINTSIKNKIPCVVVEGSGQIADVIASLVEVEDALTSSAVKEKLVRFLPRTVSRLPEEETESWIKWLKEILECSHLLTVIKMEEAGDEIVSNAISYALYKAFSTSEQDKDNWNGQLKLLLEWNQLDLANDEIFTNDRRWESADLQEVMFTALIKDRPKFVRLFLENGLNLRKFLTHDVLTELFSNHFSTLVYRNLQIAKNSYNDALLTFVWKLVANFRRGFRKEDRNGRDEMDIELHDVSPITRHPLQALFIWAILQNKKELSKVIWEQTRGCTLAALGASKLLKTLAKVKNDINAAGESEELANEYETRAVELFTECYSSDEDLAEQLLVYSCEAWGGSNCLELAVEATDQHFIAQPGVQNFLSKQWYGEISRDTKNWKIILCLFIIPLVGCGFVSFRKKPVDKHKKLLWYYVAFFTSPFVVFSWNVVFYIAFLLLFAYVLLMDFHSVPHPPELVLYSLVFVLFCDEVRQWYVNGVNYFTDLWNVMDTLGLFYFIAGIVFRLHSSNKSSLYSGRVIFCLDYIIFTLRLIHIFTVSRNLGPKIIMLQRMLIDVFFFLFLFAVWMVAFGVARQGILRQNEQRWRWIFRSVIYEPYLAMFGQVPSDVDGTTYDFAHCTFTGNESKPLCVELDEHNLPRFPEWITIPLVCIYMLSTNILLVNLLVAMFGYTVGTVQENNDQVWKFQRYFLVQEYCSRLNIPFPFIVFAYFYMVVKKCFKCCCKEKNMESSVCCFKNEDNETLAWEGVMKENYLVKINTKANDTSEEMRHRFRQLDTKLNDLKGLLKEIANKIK
Sequence of TRPV1 (Homo sapiens, UniProt Q8NER1) (Q8NER1 whole entry, species assumed): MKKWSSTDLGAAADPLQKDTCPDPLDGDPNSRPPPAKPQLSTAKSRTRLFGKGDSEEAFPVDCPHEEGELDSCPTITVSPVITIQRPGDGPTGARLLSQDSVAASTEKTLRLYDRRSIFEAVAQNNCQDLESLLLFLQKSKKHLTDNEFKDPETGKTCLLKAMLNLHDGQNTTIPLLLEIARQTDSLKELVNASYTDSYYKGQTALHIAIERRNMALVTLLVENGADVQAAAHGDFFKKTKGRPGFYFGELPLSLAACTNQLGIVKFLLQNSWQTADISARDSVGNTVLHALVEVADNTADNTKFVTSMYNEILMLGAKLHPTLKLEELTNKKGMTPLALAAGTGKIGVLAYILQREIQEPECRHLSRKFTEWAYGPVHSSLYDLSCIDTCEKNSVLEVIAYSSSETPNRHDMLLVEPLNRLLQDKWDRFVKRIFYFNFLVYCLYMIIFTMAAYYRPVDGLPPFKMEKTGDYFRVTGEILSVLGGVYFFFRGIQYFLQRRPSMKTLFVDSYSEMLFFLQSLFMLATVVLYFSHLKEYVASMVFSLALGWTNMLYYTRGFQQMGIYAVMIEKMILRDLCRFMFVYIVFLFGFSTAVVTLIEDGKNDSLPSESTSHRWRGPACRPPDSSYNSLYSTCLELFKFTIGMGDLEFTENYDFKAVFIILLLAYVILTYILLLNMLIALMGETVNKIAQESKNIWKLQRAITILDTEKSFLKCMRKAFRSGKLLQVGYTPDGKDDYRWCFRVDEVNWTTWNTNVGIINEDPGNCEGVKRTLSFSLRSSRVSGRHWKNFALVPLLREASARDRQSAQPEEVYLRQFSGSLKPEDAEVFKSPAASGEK
Sequence of TRPV4 (Q9HBA0 whole entry, species assumed): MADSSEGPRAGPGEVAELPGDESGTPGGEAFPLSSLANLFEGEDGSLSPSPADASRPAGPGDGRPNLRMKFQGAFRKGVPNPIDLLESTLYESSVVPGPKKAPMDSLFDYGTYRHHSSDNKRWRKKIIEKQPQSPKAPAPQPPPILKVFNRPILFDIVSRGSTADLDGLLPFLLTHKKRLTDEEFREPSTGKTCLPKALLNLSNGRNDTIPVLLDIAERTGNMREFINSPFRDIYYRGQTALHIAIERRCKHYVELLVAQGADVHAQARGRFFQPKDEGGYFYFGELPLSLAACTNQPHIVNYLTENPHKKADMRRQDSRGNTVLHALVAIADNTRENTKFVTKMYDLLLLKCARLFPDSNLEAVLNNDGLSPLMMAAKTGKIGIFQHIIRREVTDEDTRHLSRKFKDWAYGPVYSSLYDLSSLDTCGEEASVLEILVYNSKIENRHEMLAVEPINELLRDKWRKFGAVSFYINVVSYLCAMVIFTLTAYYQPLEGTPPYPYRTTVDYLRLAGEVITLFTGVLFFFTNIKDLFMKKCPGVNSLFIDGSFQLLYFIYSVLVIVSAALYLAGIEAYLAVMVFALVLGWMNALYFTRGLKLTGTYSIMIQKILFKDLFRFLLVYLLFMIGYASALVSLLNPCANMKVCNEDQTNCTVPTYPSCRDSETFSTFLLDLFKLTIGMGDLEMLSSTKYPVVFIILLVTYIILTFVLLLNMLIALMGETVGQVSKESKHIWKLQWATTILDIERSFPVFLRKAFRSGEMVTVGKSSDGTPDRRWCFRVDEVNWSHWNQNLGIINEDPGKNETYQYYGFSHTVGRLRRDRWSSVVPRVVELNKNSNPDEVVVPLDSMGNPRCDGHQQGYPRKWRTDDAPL

Structure (SMILES): C[C@H](C(=O)[O-])c1ccc(Nc2nc(C(F)(F)F)cs2)cc1.[Na+] [DF2755A, sodium (2S)-2-(4-{[4-(trifluoromethyl)-1,3-thiazol-2-yl]amino}phenyl)propanoate]
- radioactivity concentration, blood content into the heart [1]: 38.3 μg equivalents DF2755A g^−1 of tissue
- radioactivity concentration, kidney as a whole [1]: 29.6 μg equivalents DF2755 A/g^−1 of tissue
- radioactivity concentration, kidney cortex [1]: 33.2 μg equivalents DF2755A g^−1 of tissue
- radioactivity concentration, liver [1]: 41.7 μg equivalents DF2755A g^−1 of tissue
- radioactivity concentration, small intestine contents [1]: 180 μg equivalents DF2755A g^−1 of tissue
- radioactivity concentration, stomach contents [1]: 51.8 μg equivalents DF2755A g^−1 of tissue
- radioactivity concentration, urinary bladder contents [1]: 63.0 μg DF2755A g^−1 of tissue
- radioactivity concentration, urinary bladder wall [1]: 24.3 μg equivalents DF2755A g^−1 of tissue
- share of the administered dose in urinary bladder contents [1]: 8%
- share of the administered dose in urinary bladder wall [1]: 3%
- dose at which the antinociceptive effects reached a plateau [2, 5]: 7 mg/kg
- dose from which the antinociceptive effect was statistically significant [2, 5]: 3 mg/kg
- decrease of mechanical stimulus threshold versus basal values, hind paws [2, 6]: 17%
- decrease of mechanical stimulus threshold versus basal values, low abdomen [2, 6]: about 30%
- duration of anti-hyperalgesic effect after treatment discontinuation ([2]; therapeutic 7 mg kg^−1 twice daily for 7 days): up to 7 days
- decrease of the threshold to mechanical stimulus, hind paw plantar surfaces [2, 7]: 40%
- reduction of the threshold to mechanical stimulus, low abdomen [2, 7]: 53%
- decrease of mechanical stimulus threshold, low abdomen [2, 8]: 55%
- decrease of the threshold to mechanical stimulus, hind paw plantar surfaces [2, 8]: 33%
- reduction of the threshold to mechanical stimuli, low abdomen ([2]; therapeutic: 7 mg kg^−1 twice daily for 7 days p.o. from 24 h after last CYP, 2 h after last treatment (Figure 4A)): 24%
- decrease of the threshold to mechanical stimuli, hind paw plantar surfaces ([2]; therapeutic: 7 mg kg^−1 twice daily for 7 days p.o. from 24 h after last CYP, 2 h after last treatment (Figure 4B)): 4%
- CXCR2 mRNA expression in CYP-exposed cells (CXCR2): restored the mRNA expression of all the targets to control values
- CXCL1 mRNA expression in CYP-exposed cells (CXCL1): restored the mRNA expression of all the targets to control values
- bladder tissue expression of CXCL1/KC versus vehicle-treated rats (CXCL1/KC): strongly inhibited
- TRPV1 mRNA expression in CYP-exposed cells (TRPV1 [3]): restored TRPV1 mRNA expression to control values
- activity in agonism and antagonism mode (TRPV1 [4]): no activity
- activity in agonism and antagonism mode (TRPV4): no activity
- activity in agonism and antagonism mode (Nav1.7): no activity
- activity in agonism and antagonism mode (TRPM8): no activity
- activity in agonism and antagonism mode (TRPA1): no activity
